Test results from patent US10294230B2, “3,3-difluoropiperidine carbamate heterocyclic compounds as NR2B NMDA receptor antagonists” (Rugen Holdings (Cayman) Limited, priority 2015, dated 2019).
pIC50, pKi: −log10 of the molar value. Read-outs that look alike come from different tables or passages of the source.

Columns and labels:
NR2B receptor = NR2B receptor (Rattus norvegicus (Rat), UniProt P35439+Q00960); test: [3H] (E)-N1-(2-methoxybenzyl)-cinnamidine radioligand binding, rat brain membranes; settings: for pKi: read-out: Ki at the NR2B receptor high affinity site
Sequence of NR2B receptor (Q00960 27-1482, other chains not shown): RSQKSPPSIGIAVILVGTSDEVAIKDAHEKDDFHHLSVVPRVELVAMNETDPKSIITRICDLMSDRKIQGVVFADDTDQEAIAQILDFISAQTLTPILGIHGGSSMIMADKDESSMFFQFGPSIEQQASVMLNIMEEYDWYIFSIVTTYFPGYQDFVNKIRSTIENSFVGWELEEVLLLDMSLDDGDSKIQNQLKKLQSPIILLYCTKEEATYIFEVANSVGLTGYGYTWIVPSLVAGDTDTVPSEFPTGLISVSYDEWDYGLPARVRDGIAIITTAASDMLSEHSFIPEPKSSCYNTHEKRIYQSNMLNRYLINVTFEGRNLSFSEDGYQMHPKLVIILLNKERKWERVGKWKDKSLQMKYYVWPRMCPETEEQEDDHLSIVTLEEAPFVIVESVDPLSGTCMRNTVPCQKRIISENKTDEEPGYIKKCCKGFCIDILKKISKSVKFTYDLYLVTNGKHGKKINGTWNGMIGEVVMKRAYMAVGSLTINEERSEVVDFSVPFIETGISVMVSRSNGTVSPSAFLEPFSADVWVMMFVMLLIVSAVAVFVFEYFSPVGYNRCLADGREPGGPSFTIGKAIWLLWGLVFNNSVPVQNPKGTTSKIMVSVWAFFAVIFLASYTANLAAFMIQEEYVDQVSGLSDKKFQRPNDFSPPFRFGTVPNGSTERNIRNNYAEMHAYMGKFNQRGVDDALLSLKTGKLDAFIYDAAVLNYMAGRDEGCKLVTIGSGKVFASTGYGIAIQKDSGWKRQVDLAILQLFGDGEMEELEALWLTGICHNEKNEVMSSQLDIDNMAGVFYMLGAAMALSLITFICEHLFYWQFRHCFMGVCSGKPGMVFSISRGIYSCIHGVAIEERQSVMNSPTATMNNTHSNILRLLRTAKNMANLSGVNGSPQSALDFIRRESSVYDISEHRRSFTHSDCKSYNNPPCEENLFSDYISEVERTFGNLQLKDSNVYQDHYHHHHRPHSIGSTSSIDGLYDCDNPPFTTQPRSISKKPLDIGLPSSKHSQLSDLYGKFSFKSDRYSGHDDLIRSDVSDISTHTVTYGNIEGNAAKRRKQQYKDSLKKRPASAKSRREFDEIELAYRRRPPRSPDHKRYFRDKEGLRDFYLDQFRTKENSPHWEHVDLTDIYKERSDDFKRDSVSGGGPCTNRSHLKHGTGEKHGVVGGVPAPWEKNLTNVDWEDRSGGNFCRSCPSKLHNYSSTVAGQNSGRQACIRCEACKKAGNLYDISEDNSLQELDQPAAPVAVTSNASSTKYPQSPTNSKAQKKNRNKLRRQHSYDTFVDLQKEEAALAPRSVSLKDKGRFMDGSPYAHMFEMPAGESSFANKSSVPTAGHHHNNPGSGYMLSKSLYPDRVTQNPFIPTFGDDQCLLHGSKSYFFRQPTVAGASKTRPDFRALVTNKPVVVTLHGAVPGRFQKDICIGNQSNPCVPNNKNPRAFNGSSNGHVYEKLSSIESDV
Description: (§1) This example describes NMDA receptor binding assays using two different radioligands, [^3H] […] An established binding assay using the non-selective NMDA receptor ligand [^3H] […] The binding assay method using the NR2B selective receptor ligand [^3H] […] This assay serves as a selective measure of NR2B receptor binding activity in native rat brain receptors. Briefly, the brains of Male Wistar rats were homogenized (Polytron) before centrifugation at 40,000×g for 15 minutes at 4° C. After 2 washes, the final pellet was homogenized and stored at −80° C. The protein concentration was determined by Bradford assay.
[^3H] […] Thus, using [^3H]
(§2) Test compounds were solubilized at 10 mM in DMSO. Then the dilutions were performed with a constant solvent concentration (1% DMSO) in the assay.
(§3) After incubation for 4.5 h at room temperature, the assays were filtered on GF/B filters pretreated with 0.3% (v/v) PEI with a Brandel system for [^3H] […] The experiment was performed in duplicate (n=2).

NMDA receptor = test: [3H] MK-801 radioligand binding, rat brain membranes; settings: 2 nM [3H] MK-801
Description: as §1, §2, §3

human NR1/NR2B = human NR1/NR2B (Homo sapiens (Human), UniProt Q05586+Q13224); test: NR2B antagonist activity, Fluo-4 calcium influx in HEK293 cells; format: cell-based
Sequence of human NR1/NR2B (Q13224 27-1484, other chains not shown): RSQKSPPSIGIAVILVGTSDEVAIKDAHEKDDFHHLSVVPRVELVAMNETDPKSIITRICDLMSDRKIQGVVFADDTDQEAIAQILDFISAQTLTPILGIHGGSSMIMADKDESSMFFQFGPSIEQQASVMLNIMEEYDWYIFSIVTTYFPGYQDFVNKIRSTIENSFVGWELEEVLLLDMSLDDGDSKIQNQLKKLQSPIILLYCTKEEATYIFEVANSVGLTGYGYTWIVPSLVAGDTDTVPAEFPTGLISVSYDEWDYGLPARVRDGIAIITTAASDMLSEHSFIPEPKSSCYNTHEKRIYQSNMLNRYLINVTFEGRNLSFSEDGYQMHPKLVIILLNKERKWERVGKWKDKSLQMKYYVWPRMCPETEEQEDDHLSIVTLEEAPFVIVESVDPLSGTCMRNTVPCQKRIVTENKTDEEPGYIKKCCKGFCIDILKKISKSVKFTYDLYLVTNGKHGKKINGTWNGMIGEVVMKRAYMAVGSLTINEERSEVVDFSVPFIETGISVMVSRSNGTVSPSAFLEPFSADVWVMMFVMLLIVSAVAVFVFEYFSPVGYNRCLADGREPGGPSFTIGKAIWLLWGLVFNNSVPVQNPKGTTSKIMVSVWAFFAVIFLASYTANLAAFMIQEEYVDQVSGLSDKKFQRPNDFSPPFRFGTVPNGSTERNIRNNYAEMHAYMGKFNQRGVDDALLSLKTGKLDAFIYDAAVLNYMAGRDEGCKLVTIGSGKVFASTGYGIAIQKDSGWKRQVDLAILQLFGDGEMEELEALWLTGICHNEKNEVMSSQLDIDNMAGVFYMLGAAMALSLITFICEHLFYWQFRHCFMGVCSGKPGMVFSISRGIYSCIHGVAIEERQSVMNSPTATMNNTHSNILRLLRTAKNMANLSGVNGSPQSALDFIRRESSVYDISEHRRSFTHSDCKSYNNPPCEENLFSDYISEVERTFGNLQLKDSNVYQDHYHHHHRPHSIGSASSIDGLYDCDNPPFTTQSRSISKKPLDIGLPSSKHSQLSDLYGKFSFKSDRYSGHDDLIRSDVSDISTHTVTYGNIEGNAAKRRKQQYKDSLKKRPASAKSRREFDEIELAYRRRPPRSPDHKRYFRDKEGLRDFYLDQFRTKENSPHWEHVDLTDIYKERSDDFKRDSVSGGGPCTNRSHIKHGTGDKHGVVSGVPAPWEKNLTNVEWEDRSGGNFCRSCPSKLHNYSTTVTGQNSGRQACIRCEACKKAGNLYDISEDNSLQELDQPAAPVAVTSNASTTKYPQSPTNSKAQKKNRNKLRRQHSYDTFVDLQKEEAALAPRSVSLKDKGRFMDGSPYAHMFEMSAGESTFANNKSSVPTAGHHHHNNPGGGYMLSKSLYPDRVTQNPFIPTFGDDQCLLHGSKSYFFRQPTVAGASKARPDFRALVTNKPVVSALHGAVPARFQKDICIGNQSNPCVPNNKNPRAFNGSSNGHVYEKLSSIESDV
Description: (§4) HEK293 cell lines stably expressing cloned human NR1/NR2B and NR1/NR2A, respectively, were established according to standard previously described methods (Hansen et al., Comb. Chem High Throughput Screen. 11:304, 2008). Activation of the NR2A or NR2B subtype of NMDA receptor with glutamate as an agonist and glycine co-agonist on these cells results in calcium influx, which can be monitored with fluorescent indicator Fluo-4.
(§5) For experiments, the cells were seeded onto poly-D-lysine-coated 96-well black plates with clear bottom (Corning) at a density of ˜50,000 cells/well. After overnight culture, the growth medium was removed from the wells and the cells were incubated at 37° C. for 60 min in Hanks buffer containing 4 μM fluo-4-AM (Invitrogen) and 0.1% bovine serum albumin (BSA). After dye-loading, the cells were washed three times with Hanks buffer and incubated for 10 min at room temperature with various concentrations of test compounds prepared in Hanks buffer with 0.1% BSA. The cell plates were placed onto FDSS pCell fluorescence reader (Hamamatsu). After 20 sec reading of background fluorescence, agonist glutamate at final 100 μM and co-agonist glycine at final 50 μM were added to the cells to activate the receptor, and the resulting fluorescence changes were recorded and quantified. Based on the changes in fluorescence intensity, the pharmacological effect of test compounds were analyzed and the IC50 values derived from a non-linear least squares fitting of the concentration-dependent response to a standard logistic equation using Prism (Graphpad, Inc): Amplitude=Max Amplitude/(1+(IC50/[antagonist])^n).

human NR1/NR2A = human NR1/NR2A (Homo sapiens (Human), UniProt Q05586+Q12879); test: NR2A antagonist activity, Fluo-4 calcium influx in HEK293 cells; format: cell-based; settings: Table 2.1, glutamate 100 μM, glycine 50 μM
Description: as §4, §5

hERG channel = hERG channel (Homo sapiens (Human), UniProt Q12809); test: hERG channel inhibition, whole cell patch clamp in HEK293 cells; format: cell-based; settings: for pIC50: HEK293, whole cell patch clamp
Sequence of hERG channel (Q12809 whole entry): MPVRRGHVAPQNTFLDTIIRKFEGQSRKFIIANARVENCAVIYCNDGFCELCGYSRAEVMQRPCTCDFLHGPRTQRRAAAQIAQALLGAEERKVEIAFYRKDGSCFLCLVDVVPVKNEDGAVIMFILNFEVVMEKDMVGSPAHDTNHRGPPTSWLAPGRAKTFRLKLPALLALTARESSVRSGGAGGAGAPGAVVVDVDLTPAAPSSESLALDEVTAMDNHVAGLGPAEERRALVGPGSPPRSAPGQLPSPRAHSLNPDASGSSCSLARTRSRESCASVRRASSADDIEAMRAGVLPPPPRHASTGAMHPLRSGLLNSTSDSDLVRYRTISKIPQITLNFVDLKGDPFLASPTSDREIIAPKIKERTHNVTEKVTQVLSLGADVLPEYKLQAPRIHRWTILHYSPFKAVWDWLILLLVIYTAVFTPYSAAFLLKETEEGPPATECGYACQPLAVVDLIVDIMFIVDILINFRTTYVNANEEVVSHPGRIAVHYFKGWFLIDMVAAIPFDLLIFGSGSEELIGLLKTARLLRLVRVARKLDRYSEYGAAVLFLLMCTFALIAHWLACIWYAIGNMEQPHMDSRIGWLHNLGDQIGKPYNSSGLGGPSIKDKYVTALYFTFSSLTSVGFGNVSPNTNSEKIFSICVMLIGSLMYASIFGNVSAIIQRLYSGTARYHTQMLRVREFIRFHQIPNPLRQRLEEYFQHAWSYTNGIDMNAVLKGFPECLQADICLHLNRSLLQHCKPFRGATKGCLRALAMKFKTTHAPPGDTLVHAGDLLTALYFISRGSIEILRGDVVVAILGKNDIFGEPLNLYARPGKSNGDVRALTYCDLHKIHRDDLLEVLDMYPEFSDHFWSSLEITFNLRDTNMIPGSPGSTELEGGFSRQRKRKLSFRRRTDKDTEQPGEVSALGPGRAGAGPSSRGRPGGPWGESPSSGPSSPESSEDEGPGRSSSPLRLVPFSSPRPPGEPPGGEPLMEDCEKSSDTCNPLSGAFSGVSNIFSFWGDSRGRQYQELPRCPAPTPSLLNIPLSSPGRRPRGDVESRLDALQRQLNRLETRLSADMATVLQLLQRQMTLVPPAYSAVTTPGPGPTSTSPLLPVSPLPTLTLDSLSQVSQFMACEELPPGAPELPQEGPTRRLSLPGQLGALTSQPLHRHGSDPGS
Description: The assay was performed on hERG channel stably expressed in HEK293 cells. The cells were cultured at 37° C. in a humidified CO2 incubator in the growth medium consisting of DMEM, 10% fetal bovine serum and antibiotics. Prior to the assay, the cells were seeded onto a 12 mm PDL-coated glass coverslip and cultured in a 35 mm Petri dish. After 16 to 40 hr culture, the cover slip was transferred into the chamber of OctaFlow perfusion system (ALA Instrument) and under a constant flow of extracellular solution (140 mM NaCl, 4 mM KCl, 1 mM MgCl2, 2 mM CaCl2, 10 mM HEPES, 10 mM D-glucose, pH 7.35, osmolarity 290). Whole cell patch clamping was performed with a glass micropipette filled with intracellular solution (120 mM KCl, 1.75 mM MgCl2, 5.4 mM CaCl2, 10 mM HEPES, 10 mM EGTA, and 4 mM ATP-K2, PH 7.2, osmolarity 310). Giga-seal was maintained during the test. The voltage control and current measurement were carried out using Axon amplifier 700B, Digidata 1440A and CLAMPEX10 software (Molecular Devices). Whole-cell hERG currents were recorded following the Petroski protocol: the cell was held at −80 mV, and the voltage step jumped from −80 to 30 mV and stay for 2 sec with a 20 ms prepulse at −40 mV. After depolarization, the voltage was decreased to −40 mV and stay for 2 sec, and returned back to −80 mV. Test compound was applied by quartz capillary tubes tip (200 μm inner diameter), and the flow rate was controlled at 2-3 ml/min with OctaFlow perfusion system. Different concentrations of the compound were applied to the cells for 5 min and the hERG current was measured three times before, during and after compound treatment. The data were analyzed using Clampfit 10 software (Molecular Devices) to generate IC50 values.

CYP2D6 = CYP2D6 (Homo sapiens (Human), UniProt P10635); test: CYP P450 enzyme inhibition, pooled human liver microsome; format: in vitro ADME; settings: pooled HLM, dextromethorphan 5 μM
Sequence of CYP2D6 (P10635 whole entry): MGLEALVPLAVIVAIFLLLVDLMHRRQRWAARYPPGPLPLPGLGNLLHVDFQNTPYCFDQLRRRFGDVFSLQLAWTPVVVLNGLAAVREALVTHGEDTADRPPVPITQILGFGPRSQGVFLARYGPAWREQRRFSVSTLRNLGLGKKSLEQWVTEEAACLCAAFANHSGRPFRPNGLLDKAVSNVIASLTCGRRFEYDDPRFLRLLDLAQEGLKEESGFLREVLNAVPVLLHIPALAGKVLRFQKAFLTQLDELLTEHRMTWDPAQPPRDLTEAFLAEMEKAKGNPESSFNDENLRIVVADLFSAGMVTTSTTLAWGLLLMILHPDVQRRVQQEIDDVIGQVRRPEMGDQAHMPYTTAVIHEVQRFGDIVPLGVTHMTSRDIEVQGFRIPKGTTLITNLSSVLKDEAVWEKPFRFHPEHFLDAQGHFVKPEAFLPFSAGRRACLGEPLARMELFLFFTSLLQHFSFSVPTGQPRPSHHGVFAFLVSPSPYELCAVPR
Description: Those CYP isoforms and their corresponding probe substrates are as follows: CYP1A2 (phenacetin, 30 μM), CYP2C9 (tolutamide, 100 μM), CYP2C19 (S-mephenytoin, 40 μM), CYP2D6 (dextromethorphan, 5 μM) and CYP3A4 (midazolam, 1 μM). All probe substrates were used at concentrations near or below their Kms. For experiment, a reaction mixture of test compound at 10 μM or in serial dilution, CYP probe substrate described above and 0.2 mg/mL pooled HLM in phosphate buffer, pH 7.4 in a final volume of 200 μL was pre-incubated at 37° C. for 10 minutes in triplicate. The reaction was initiated by addition of NADPH at final concentration of 1 mM. The reaction was terminated after 10 minutes (CYP1A2, CYP2D6 and CYP3A4) or 30 minutes (CYP2C9 and CYP2C19) by addition of 100 μL ice-cold acetonitrile with internal standard (IS). The samples were then centrifuged at 13,000 rpm and the supernatants were injected to LC-MS/MS (Agilent Technologies) to quantify the concentration of the specific metabolites of the probe substrates formed by individual CYP450 isoforms. The inhibition ratio is calculated as: (Mt−M0)/Mwater×100% in which Mt and M0 represent the concentrations of the specific probe substrate metabolite, which was formed by individual CYP450 isoform, at the beginning and end of the reaction in the presence of test compound; while Mwater represents the concentration of the specific metabolite at the end of the reaction in the absence of test compound. Test compound concentration-dependent response data experiments performed in triplicate.

[1] = test system: electroconvulsive threshold (tonic convulsions); test: Electroconvulsive Threshold Test (ECT); format: in vivo, rats; settings: rats
Description: Test compound E1-8.2 was administered as the free base.
Rats were administered ECS (rectangular current: 0.6 ms pulse width, 1.5 s duration, 200 Hz) via earclip electrodes connected to a constant current shock generator (Ugo Basile: type 7801). Test compounds were administered by oral gavage (p.o.) 1 hour before the test at a dose volume of 5 mL/kg.
Treatment groups of 20 rats were exposed to ECS as follows: The first animal was exposed to 30 mA of ECS. […] (increases of 5 mA) until the first tonic convulsion was observed. Once the first tonic convulsion was observed, the intensity of ECS was decreased by 2 mA for the next animal and then decreased or increased by 2 mA from animal to animal depending on whether the previous animal convulsed or not. If the first animal did convulse (tonic convulsions) within 5 seconds, animal no2 is exposed to 25 mA, etc. . . . (decreases of 5 mA) until the absence of tonic convulsions was observed. At this point, the intensity of ECS was increased by 2 mA for the next animal and then decreased or increased by 2 mA from animal to animal depending on whether the previous animal convulsed or not. The minimum current intensity applied is 5 mA and the maximum 95 mA. The first 5 animals serve to approach threshold current and were not included in the analysis. The results are presented as the mean current intensity administered to the final 15 animals of a group. The test was performed blind. A positive percent change indicates an anticonvulsant effect. A negative percent change indicates a proconvulsant effect. The test substance was evaluated at 4 doses, typically using 0.5% dimethylsulfoxide, 4% hydroxypropyl-b-cyclodextrin water as a vehicle, and administered p.o. 60 minutes before ECS, and compared with a vehicle control group. Diazepam (16 mg/kg p.o.), administered under the same experimental conditions, was used as reference substance. The experiment included 6 groups. Data with the test substance was analyzed by comparing treated groups with vehicle control using one-way ANOVA followed by Dunnett's t tests.

[2] = test system: KCl-induced cortical spreading depression; test: Cortical Spreading Depression (CSD), aura phase of migraine model; format: in vivo; settings: rats
Description: The cortical spreading depression model is utilized to investigate whether treatment with compounds of the present invention affect electrophysiological and hemodynamic events in a rat model of migraine.
Rats were anesthetized with 5% isoflurane (in 70% N2O and 30% O2; flow 300 ml/min) and placed in a stereotactic frame. […] The rectal temperature was maintained at 37.0±1.0° C. with a homeothermic blanket system. The skin was opened by a medial incision and retracted laterally. Three burr holes were drilled under saline cooling over the right hemisphere at the following coordinates (mm from bregma): (1) posterior 4.5, lateral, 2.0 (occipital cortex): KCl application site; (2) posterior 0.5, lateral 2.0 (parietal cortex): LDF recording site; (3) anterior 2, lateral 2 (frontal cortex): DC potential recording site. A laser-Doppler flow probe (Oxyflow, Oxford Optronics, UK) to monitor CBF and an invasive Ag/AgCl electrode for measuring direct current (DC) potential shifts were placed in the parietal and frontal cortex burr holes on the intact dura and in the cortex, respectively. The laser-Doppler flow probe was positioned in an area free of large pial and dural vessels to minimize a large-vessel contribution to the signal. For the DC-potential measurement, a reference electrode was fixed in the neck. Dura overlying the occipital cortex was gently removed and care was taken to avoid bleeding. After surgical preparation, the cortex was allowed to recover for 15 minutes under saline irrigation. A cotton ball (2 mm diameter) soaked with 1M KCl was placed on the pial surface and kept moist by placing 5 μl of KCl solution every 15 minutes. Test compound or vehicle was administered ten (10) minutes prior to CSD initiation. […] The number of KCl-induced CSDs was counted for 2 hours. The CBF and DC-potentials were monitored continuously starting from 5 minutes before KCl exposure.
Test compound E1-1.2 was administered as a mesylate salt (mpk based on molecular weight of the mesylate salt).
The data was collected in Windaq acquisition software (Dataq Instruments, USA) at 20 kHz. The raw data was analyzed in Clampfit program (Axon Instruments, USA). The signals were low pass filtered (cut off range 5-10000 Hz) that CSD episodes in DC and CBF could be confirmed. The following parameters were analyzed: i) the number, duration and amplitude of DC-potentials, and ii) the number and amplitude of CBF events.
Doses were given as milligram per kilogram (mpk). […] Bars represent mean±Standard Error of Mean (SEM), and differences were considered to be statistically significant at the P<0.05 level (n=8, * different from vehicle group). Statistical analysis was performed using StatsDirect statistical software. Differences between groups were analyzed by using 1-way ANOVA and Dunnett's post hoc test.

[3] = Table 2.1, HEK293 human NR1/NR2B, glutamate 100 μM, glycine 50 μM
[4] = E1-1.2 at various doses, MK-801 1.25 mg/kg

Molecule: COc1ccccc1CNC(=N)/C=C/c1ccccc1 [(E)-N1-(2-methoxybenzyl)-cinnamidine, reference compound]
- pKi (NR2B receptor; rat brain membranes, [3H] (E)-N1-(2-methoxybenzyl)-cinnamidine): 9.74

Molecule: CCc1ccc(COC(=O)N2CC[C@H](CNc3nccn4cnnc34)C(F)(F)C2)cc1 [Compound E1-1.5, R-4-ethylbenzyl 4-(([1,2,4]triazolo[4,3-a]pyrazin-8-ylamino)methyl)-3,3-difluoropiperidine-1-carboxylate]
- partial effect on [3H] MK-801 binding (NMDA receptor): 48%
- displacement of [3H] (E)-N1-(2-methoxybenzyl)-cinnamidine at the NR2B receptor high affinity site (NR2B receptor; rat brain membranes): 97%

Molecule: Cc1ccc(COC(=O)N2CC[C@H](CNc3cncc4nncn34)C(F)(F)C2)cc1 [Compound E1-2.2, R-4-methylbenzyl 4-(([1,2,4]triazolo[4,3-a]pyrazin-5-ylamino)methyl)-3,3-difluoropiperidine-1-carboxylate]
- pIC50 (human NR1/NR2B; [3]): 7.98
- pIC50 (human NR1/NR2B; Table 2.2): 7.98
- pIC50 (human NR1/NR2B; Table 2.3): 7.98
- pIC50 (human NR1/NR2A): < 5.00
- hERG @ 10 μM (%) (hERG channel): 32%
- CYP2D6 @ 10 μM (%) (CYP2D6): 18%

Molecule: Cc1ccc(COC(=O)N2CC[C@H](CNc3ncc4cn[nH]c4n3)C(F)(F)C2)cc1 [Compound E1-8.2, (+)-R-4-methylbenzyl-4-((1H-pyrazolo[3,4-d]pyrimidin-6-ylamino)methyl)-3,3-difluoropiperidine-1-carboxylate]
- pIC50 (human NR1/NR2B; [3]): 7.77
- pIC50 (human NR1/NR2B; Table 2.2): 7.77
- pIC50 (human NR1/NR2B; Table 2.3): 7.77
- partial effect on [3H] MK-801 binding (NMDA receptor): 33%
- displacement of [3H] (E)-N1-(2-methoxybenzyl)-cinnamidine at the NR2B receptor high affinity site (NR2B receptor; rat brain membranes): 95%
- hERG @ 10 μM (%) (hERG channel): 57%
- pIC50 (hERG channel): 5.17
- CYP2D6 @ 10 μM (%) (CYP2D6): 83%
- pIC50 (CYP2D6): 5.23
- electroconvulsive threshold, pro-/anticonvulsant activity ([1]; 0.5 and 2 mpk p.o., free base): modest proconvulsant activity
- electroconvulsive threshold, pro-/anticonvulsant activity ([1]; 10 and 20 mpk p.o., free base): anticonvulsant activity

Molecule: Cc1ccc(COC(=O)N2CC[C@H](CNc3nc4ccccn4n3)C(F)(F)C2)cc1 [Compound E1-9.2, (+)-R-4-methylbenzyl 4-(([1,2,4]triazolo[1,5-a]pyridin-2-ylamino)methyl)-3,3-difluoropiperidine-1-carboxylate]
- pIC50 (human NR1/NR2B; [3]): 7.32
- pIC50 (human NR1/NR2B; Table 2.2): 7.32
- pIC50 (human NR1/NR2B; Table 2.3): 7.32
- partial effect on [3H] MK-801 binding (NMDA receptor): 34%
- displacement of [3H] (E)-N1-(2-methoxybenzyl)-cinnamidine at the NR2B receptor high affinity site (NR2B receptor; rat brain membranes): 97%
- pKi (NR2B receptor): 7.95
- hERG @ 10 μM (%) (hERG channel): 38%
- CYP2D6 @ 10 μM (%) (CYP2D6): 14%

Molecule: Cc1ccc(COC(=O)N2CC[C@H](CNc3ncccn3)C(F)(F)C2)cc1 [Compound E1-22.2, (+)-R-4-methylbenzyl 3,3-difluoro-4-((pyrimidin-2-ylamino)methyl)-piperidine-1-carboxylate]
- pIC50 (hERG channel): < 5.00

Molecule: Cc1ccc(COC(=O)N2CC[C@@H](CNc3nccn4cnnc34)C(F)(F)C2)cc1 [Compound E2-1.2, (−)-S-4-methylbenzyl 4-(([1,2,4]triazolo[4,3-a]pyrazin-8-ylamino)methyl)-3,3-difluoropiperidine-1-carboxylate]
- pIC50 (human NR1/NR2B; [3]): 6.81
- pIC50 (human NR1/NR2B; Table 2.2): 6.81
- pIC50 (human NR1/NR2B; Table 2.3): 6.81
- pIC50 (human NR1/NR2A): < 5.00
- partial effect on [3H] MK-801 binding (NMDA receptor): 36%
- displacement of [3H] (E)-N1-(2-methoxybenzyl)-cinnamidine at the NR2B receptor high affinity site (NR2B receptor; rat brain membranes): 98%
- pKi (NR2B receptor): 7.13
- hERG @ 10 μM (%) (hERG channel): 22%

Molecule: FC(F)(F)c1ccc(C(F)(F)CN2CCC(Nc3ncnc4[nH]ncc34)CC2)cc1 [LX-1, reference compound]
- CYP2D6 @ 10 μM (%) (CYP2D6): 93%

Molecule: CN1C(=O)CN=C(c2ccccc2)c2cc(Cl)ccc21 [diazepam, reference compound]
- electroconvulsive threshold, pro-/anticonvulsant activity ([1]; 16 mpk p.o.): expected anticonvulsant activity

Molecule: Cn1c(=O)c2[nH]cnc2n(C)c1=O [theophylline, reference compound]
- electroconvulsive threshold, pro-/anticonvulsant activity ([1]; 128 mpk p.o.): expected proconvulsant activity

Molecule: MK-801 [reference compound]
- number of CBF events vs vehicle ([2]; E1-1.2 at 10 mg/kg, MK-801 at 1.25 mg/kg): decreased
- amplitude of DC potentials vs vehicle [2, 4]: not statistically different
- duration of DC potentials vs vehicle [2, 4]: increased
